Data on four compounds can be found in PMC10056257 (Journal of medicinal chemistry, 2023).

Data set [1] deals with Lactobacillus plantarum DSM 20174. In words: MIC against L. plantarum. In kind it is cell-based. The conditions noted are these: L. plantarum DSM 20174.
For data set [2], the system named is Bacteroides thetaiotaomicron DSM 2079. Nature of the data set: MIC against anaerobic bacteria. In kind it is cell-based. The conditions noted are these: B. thetaiotaomicron DSM 2079, anaerobic.
Data set [3] relates to Lactobacillus rhamnosus CGMCC 1.3724. In words: MIC against L. rhamnosus. In kind it is cell-based. Particulars: L. rhamnosus CGMCC 1.3724.
Data set [4] deals with Acinetobacter baumannii 2208. Nature of the data set: MIC, broth microdilution. In kind it is cell-based. Particulars: A. baumannii 2208.
The nature of data set [5]: Simulated intestinal fluid stability. In kind it is in vitro ADME. The conditions noted are these: SIF pH 7.60 with pancreatin, 24 h.
Data set [6] concerns Anaerostipes caccae DSM 14662. In words: MIC against anaerobic bacteria. In kind it is cell-based. Particulars: A. caccae DSM 14662, anaerobic.
Data set [7] has as its system E. coli nonpathogenic ATCC MG1655. Nature of the data set: MIC determination. In kind it is cell-based, Escherichia coli.
In data set [8] the test system is Pseudomonas aeruginosa PA01. In words: MIC, broth microdilution. In kind it is cell-based. Particulars: P. aeruginosa PA01.
For another data set, the system named is Escherichia coli K12. In words: MIC, broth microdilution. In kind it is cell-based. The conditions noted are these: E. coli K12. In general terms: Dilution methods test growth across graded concentrations, often in twofold steps.
In a further data set the test system is S. aureus USA 300 JE2. Nature of the data set: MIC, broth microdilution. In kind it is cell-based, Staphylococcus aureus.
In data set [9] the test system is Methicillin-resistant S. aureus (MRSA) ClpX. The conditions noted are these: read-out: IC50, ClpX ATPase activity; cited from earlier work.
Another data set has as its system S. typhimurium TA100. Particulars: positive control, TA100, S9−, 2.5 μg/plate.

Usually IC50 stands for the concentration needed to halve the response being measured.

Marks after values point to notes of the source that are not given here.

With `N#Cc1ccccc1C1Sc2ccccc2NC2=C1C(=O)c1ccccc12` (stereo not shown) [5a, 2-(12-Oxo-11,12-dihydro-5H-benzo[b]indeno[1,2-e][1,4]thiazepin-11-yl)benzonitrile], the MIC result in data set [1] was “no antibacterial activity”; in data set [2], “completely inactive”; in data set [3], “no antibacterial activity”; in data set [4] it was “inactive”; in [6] it was “completely inactive”; in [7], “completely inactive”. Besides, the MIC result (in data set [8]; in the data set on Escherichia coli K12; in the data set on S. aureus USA 300 JE2) was “inactive” each time. Moreover, the “percentage of drug remaining” value in data set [5] is “around 85%”.

Regarding `CC[C@H]1OC(=O)[C@H](C)[C@@H](O[C@H]2C[C@@](C)(OC)[C@@H](O)[C@H](C)O2)[C@H](C)[C@@H](O[C@@H]2O[C@H](C)C[C@H](N(C)C)[C@H]2O)[C@](C)(O)C[C@@H](C)CN(C)[C@H](C)[C@@H](O)[C@]1(C)O` [AZM, azithromycin, reference compound], the MIC entry in data set [6] is listed as “no susceptibility”.

In the case of `O=C1C2=C(Nc3ccccc3SC2c2cccc(O)c2)c2ccccc21` (stereo not shown) [compound 334, 11-(3-Hydroxyphenyl)-5,11-dihydro-12H-benzo[b]indeno[1,2-e][1,4]thiazepin-12-one], the 50% inhibitory concentration (IC50) in data set [9] was 800 nM.

As for Sodium azide, the number of revertants/plate in the data set with S. typhimurium TA100 was 260.70 ± 15.30^e revertants/plate.
